Assay results published in patent US20170150719A1, “FUNGICIDAL PYRAZOLES AND THEIR MIXTURES” (E I DU PONT DE NEMOURS AND COMPANY, priority 2010, published 2017).

Tests used:
[1] = Single oral dose pharmacokinetics in rats, plasma and fat by LC/MS (fat:plasma distribution); format: in vivo; details: single oral dose via gavage, compared to corresponding compounds wherein R^2 is other than H
Protocol: The pharmacokinetic properties of compounds of Formula 1 can be measured using a wide variety of assay protocols known in the science of pharmacology. In one illustrative method involving a single oral dose, three male and three female rats receive a single dose of a test substance via oral gavage. Approximately 0.25 mL of blood is collected via tail vein immediately prior to dosing, and then at 0.25, 0.5, 1, 2, 4, 8, 12, 24 h and every 24 h thereafter until sacrifice. At sacrifice, fat is also collected to determine the fat:plasma ratio at sacrifice. Blood is collected into tubes that contain ethylenediaminetetracetic acid (EDTA) and centrifuged at 2500×g in order to separate plasma from blood cells. The plasma is then extracted by protein precipitation using, for example, acetonitrile and a protein precipitation plate (e.g., Strata Impact Protein Precipitation Plate, part number CEO-7565 of Phenomenex, Torrance, Calif., U.S.A.) following directions provided for the plate. Alternatively, the plasma is extracted just with acetonitrile, vortexed (i.e. mixed using a vortex mixer), and centrifuged to pellet the proteins. After removal of the proteins, the plasma is analyzed for parent compound and/or metabolites by liquid chromatography-mass spectrometry (LC/MS). The fat is homogenized and extracted by an organic solvent such as acetonitrile. The extract is then analyzed for parent compound and/or metabolites by LC/MS. The plasma pharmacokinetic data is then analyzed using nonlinear modeling software (e.g., WinNonlin™ from Pharsight, Cary, N.C., U.S.A.) to determine half-life of the administered compound in plasma, the time after administration when the maximum plasma concentration is reached (Tmax), the maximum plasma concentration (Cmax) and the area under the plasma concentration curve (AUC). As analysis of fat requires rat sacrifice, fat data is obtained at single time points (i.e. the time of rat sacrifice). However, by using multiple rats sacrificed after different intervals from time of dosing, such parameters as Cmax for fat are determined.

[2] = test system: Blumeria graminis f. sp. tritici; experiment: Test I: wheat powdery mildew, preventive spray on wheat seedlings, visual disease rating; details: wheat powdery mildew; 100 = 100% disease control, 0 = no disease control relative to the controls
[3] = test system: Puccinia recondita f. sp. tritici; experiment: Test H: wheat leaf rust, preventive spray on wheat seedlings, visual disease rating; details: wheat leaf rust, sprayed the day before inoculation; 100 = 100% disease control, 0 = no disease control
Rhizoctonia solani = experiment: Test D: turf brown patch, preventive spray on creeping bent grass seedlings, disease rating; details: 100 = 100% disease control, 0 = no disease control relative to the controls
Protocol: General protocol for preparing test suspensions for Tests A-I: the test compounds were first dissolved in acetone in an amount equal to 3% of the final volume and then suspended at the desired concentration (in ppm) in acetone and purified water (50/50 mix by volume) containing 250 ppm of the surfactant Trem® 014 (polyhydric alcohol esters). The resulting test suspensions were then used in Tests A-I. Each test was conducted in triplicate, and the results were averaged. Spraying a 200 ppm test suspension to the point of run-off on the test plants was the equivalent of a rate of about 800 g/ha. Unless otherwise indicated, the rating values indicate a 200 ppm test suspension was used. (An asterisk “*” next to the rating value indicates a 40 ppm test suspension was used.)
The test suspension was sprayed to the point of run-off on creeping bent grass (Agrostis sp.) seedlings. The following day the seedlings were inoculated with a bran and mycelial slurry of Rhizoctonia solani (the causal agent of turf brown patch) and incubated in a saturated atmosphere at 27° C. for 48 h, and then moved to a growth chamber at 27° C. for 3 days, after which time disease ratings were made.

Septoria nodorum = experiment: Test E: Septoria glume blotch, preventive spray on wheat seedlings, visual disease rating; details: 100 = 100% disease control; for Test E rating (disease control): Septoria glume blotch, 0 = no disease control relative to the controls
Septoria tritici = experiment: Test F: wheat leaf blotch, preventive spray on wheat seedlings, visual disease rating; format: in vivo; details: 100 = 100% disease control, 0 = no disease control relative to the controls
Excerpt: (§1) A hyphen (-) indicates no test results.

Alternaria solani = experiment: Test B: tomato early blight, preventive spray on tomato seedlings, visual disease rating; details: tomato early blight, 100 = 100% disease control; for Test B rating (disease control): 0 = no disease control relative to the controls
Botrytis cinerea = experiment: Test A: tomato Botrytis, preventive spray on tomato seedlings, visual disease rating; details: tomato Botrytis; 100 = 100% disease control, 0 = no disease control relative to the controls
Phytophthora infestans = experiment: whole plant or invertebrate; format: in vivo; details: tomato late blight, 100 = 100% disease control; for Test C rating (disease control): 0 = no disease control relative to the controls
[4] = test system: Puccinia recondita f. sp. tritici; experiment: Test G: wheat leaf rust, spray after inoculation (curative) on wheat seedlings, visual disease rating; format: in vivo; details: spray after inoculation, 100 = 100% disease control, rating without asterisk
Excerpt: as §1

[5] = preventive spray, rating without asterisk

Row | SMILES | distribution into fat [1] | Test I rating (disease control) [2] [%] | Test H rating (disease control) [3] [%] | Test D rating (disease control) (Rhizoctonia solani) [%] | Test E rating (disease control) (Septoria nodorum) [%] | Test F rating (disease control) (Septoria tritici) [%] | Test B rating (disease control) (Alternaria solani) [%] | Test A rating (disease control) (Botrytis cinerea) [%] | Test C rating (disease control) (Phytophthora infestans) [%] | also measured
1 | Cc1nn(C)c(Nc2c(F)cccc2Br)c1-c1ccc(F)cc1Cl [Compound 241, N-(2-bromo-6-fluorophenyl)-4-(2-chloro-4-fluorophenyl)-1,3-dimethyl-1H-pyrazol-5-amine] | significantly diminished distribution into fat |  |  |  |  |  |  |  |  | 
2 | Cc1nn(C)c(Nc2ccccc2F)c1-c1ccc(F)cc1Cl [compound 1] |  | 100 | 99 | 99 | 0 | 100 | 93 | 99 | 0 | 
3 | Cc1nn(C)c(Nc2c(F)cccc2Cl)c1-c1ccc(F)cc1Cl [Compound 239, 4-(2-chloro-4-fluorophenyl)-N-(2-chloro-6-fluorophenyl)-1,3-dimethyl-1H-pyrazol-5-amine] | significantly diminished distribution into fat |  |  |  |  |  |  |  |  | Test E rating (% disease control) (Septoria nodorum; Septoria glume blotch on wheat, preventive spray, rating without asterisk): 99%; Test G rating (% disease control) [4]: 100%; melting point: 166 to 168 °C; Test B rating (% disease control) (Alternaria solani; [5]): 100%; Test C rating (% disease control) (Phytophthora infestans; [5]): 0%
4 | Cc1nn(C)c(Nc2c(F)cccc2Cl)c1-c1ccc(F)cc1Br [Compound 240, 4-(2-Bromo-4-fluorophenyl)-N-(2-chloro-6-fluorophenyl)-1,3-dimethyl-1H-pyrazol-5-amine] | significantly diminished distribution into fat |  |  |  |  |  |  |  |  | 
5 | Cc1nn(C)c(Nc2ccc(F)cc2F)c1-c1ccc(F)cc1Cl [compound 2] |  | 99 | 100 | 98 | 64 | 100 | 100 | 99 | 0 | 
